As usually defined, the Tmax is the time from dosing to the highest level. The term IC50 denotes the concentration needed to halve the response being measured. Broadly, the MIC is the smallest concentration in the dilution series that meets the test's criterion for growth inhibition. As a reminder, the pKa is the negative logarithm of the acid dissociation constant. What is called solubility is the concentration that dissolves in the medium under given conditions. High values mean much dissolved substance, low ones little dissolved substance. Broadly, the efflux ratio is the permeability from basolateral to apical divided by that in the opposite direction, in the common usage. As a reminder, the logD is the decadic logarithm of the distribution of all forms, ionised or not, between an organic phase and buffer at a given pH. High values mean a more lipophilic compound, low ones a more hydrophilic compound.

Structures are written as SMILES. In brackets after ≈: the same amount, converted by molar mass.

One series is described as follows: in vivo. The note with it: mouse, po, 10 mg/kg.
The subject of series [1] is Escherichia coli. Description: Bacteriostatic activity against Escherichia coli ATCC 25922 infected in mouse model of neutropenic thigh infection assessed as static dose compound administered subcutaneously 2 hrs post infection and measured after 24 hrs by serial dilution method. It is filed as functional.
Series [2] can be described thus: Dose normalized AUC in rat at 10 mg/kg, po measured up to 24 hrs by LC-MS/MS analysis. It is filed as ADME, organism-based. The note with it: in vivo.
Series [3] is described as follows: Dose normalized Cmax in rat at 10 mg/kg, po measured up to 24 hrs by LC-MS/MS analysis. Type of series: ADME, organism-based. Conditions: in vivo.
Series [4] is described as follows: Inhibition of recombinant full-length C-terminal His6-tagged Escherichia coli DNA topoisomerase 4 subunit ParC/ParE using kinetoplast DNA as substrate preincubated for 30 mins followed by substrate addition and measured after 1 hr in presence of ATP by size exclusion chromatography. A general note: Size exclusion chromatography separates by hydrodynamic size, large species first.

Series [5] can be described thus: Tmax in rat at 10 mg/kg, po measured up to 24 hrs by LC-MS/MS analysis. It is filed as ADME, organism-based. The note with it: in vivo.
Series [6] has as its system Escherichia coli. Description: Antibacterial activity against wild type Escherichia coli ATCC 25922 at pH 7.4 by CLSI-based broth microdilution assay. It is filed as functional. For orientation: Dilution methods test growth across graded concentrations, often in twofold steps.
For series [7], the system named is Pseudomonas aeruginosa. The series is described as follows: Antibacterial activity against wild type Pseudomonas aeruginosa PAO1 K767 by CLSI-based broth microdilution assay. Type of series: functional.
Series [8] is described as follows: Dissociation constant, pKa of the compound by UV metric method. It is filed as physicochemical.
A further series deals with Klebsiella pneumoniae. Description: Antibacterial activity against wild type Klebsiella pneumoniae ATCC 43816 by CLSI-based broth microdilution assay. Type of series: functional.
Series [9] concerns Pseudomonas aeruginosa. Description: Antibacterial activity against Pseudomonas aeruginosa NB52023 harboring gyrA T83I mutant/ParC S87L mutant by CLSI-based broth microdilution assay. It is filed as functional.
The test system of series [10] is Pseudomonas aeruginosa. Description: Antibacterial activity against Pseudomonas aeruginosa K1542/K767 harboring MexB/MexXY deletion mutant by CLSI-based broth microdilution assay. Type of series: functional.
The subject of series [11] is Escherichia coli. Description: Antibacterial activity against Escherichia coli BW25113/JW0451-2 harboring AcrB deletion mutant by CLSI-based broth microdilution assay. It is filed as functional.
Series [12] has as its system Escherichia coli. Description: Ratio of MIC for antibacterial activity against wild type Escherichia coli ATCC 25922 at pH 5.8 to MIC for antibacterial activity against wild type Escherichia coli ATCC 25922 at pH 7.4. Type of series: functional.
Series [13] can be described thus: Photoirradiation factor, ratio of IC50 for BALB/c mouse 3T3 cells under dark condition to IC50 for BALB/c mouse 3T3 cells under 5 J/cm2 sunlight irradiation by neutral red uptake assay. It is filed as ADME, cell-based, NIH3T3. The note with it: BALB/c 3T3 cells, read-out: Ratio IC50.
For the next series, the system named is NIH3T3. Description: Phototoxicity against BALB/c mouse 3T3 cells assessed as reduction in cell viability preincubated for 1 hr followed by 5 J/cm2 UVA sunlight irradiation for 50 mins and subsequent replacement of medium and measured after 24 hrs by neutral red uptake assay. It is filed as cell-based. Conditions: NIH3T3, light or radiation study.
The test system of series [14] is Escherichia coli. Description: Antibacterial activity against wild type Escherichia coli ATCC 25922 at pH 5.8 by CLSI-based broth microdilution assay. Type of series: functional.
The next series concerns the target DNA gyrase (Escherichia coli, UniProt P0AES4+P0AES6). The series is described as follows: Inhibition of recombinant full-length C-terminal His6-tagged Escherichia coli DNA gyrase AB supercoiling activity using relaxed DNA as substrate preincubated for 30 mins followed by substrate addition and measured after 2 hrs in presence of ATP by size exclusion HPLC analysis. It is filed as protein-complex assay.

Series [15] in a line: Selectivity ratio of MIC for Pseudomonas aeruginosa NB52023 harboring gyrA T83I mutant/ParC S87L mutant to MIC for Pseudomonas aeruginosa K1542/K767 harboring MexB/MexXY deletion mutant. Type of series: functional.
Series [16] is described as follows: Dark toxicity in BALB/c mouse 3T3 cells assessed as reduction in cell viability incubated for 1 hr prior to 50 mins incubation under dark condition followed by replacement of medium and measured after 24 hrs by neutral red uptake assay. Type of series: cell-based, NIH3T3. The note with it: BALB/c 3T3 cells.
Series [17] is described as follows: Selectivity ratio of MIC for wild type Escherichia coli ATCC 25922 to MIC for Escherichia coli BW25113/JW0451-2 harboring AcrB deletion mutant. Type of series: functional.
Series [18] is described as follows: Solubility of the compound in pH 7 PBS incubated for 24 hrs under gently shaking condition by UPLC/UV/CLND/MS analysis. Conditions: PBS, pH 7. Type of series: physicochemical.
Series [19] in a line: Intrinsic clearance in human liver microsomes at 1 uM in presence of NADPH and measured up to 30 mins by LC-MS/MS analysis. Conditions: read-out: CLH. It is filed as ADME, Microsome.
The nature of series [20]: Protein binding in Sprague-Dawley rat plasma at 10 uM incubated for 4 hrs under shaking condition by LC-MS/MS analysis. It is filed as ADME, cell-free. Conditions: read-out: PPB (converted).
The nature of series [21]: Protein binding in CD1 mouse plasma at 10 uM incubated for 4 hrs under shaking condition by LC-MS/MS analysis. Type of series: ADME, cell-free. The note with it: read-out: PPB (converted).
A short description of series [22]: Efflux ratio of apparent permeability in human Caco2 cells at 10 uM after 2 hrs by LC-MS/MS analysis. The note with it: Caco-2. Type of series: ADME, cell-based.
Series [23] concerns the target Voltage-gated inwardly rectifying potassium channel KCNH2 (Homo sapiens, UniProt Q12809). The series is described as follows: Inhibition of human ERG expressed in CHOK1 cells by QPatch automated patch-clamp assay. Type of series: cell-based, CHO-K1. A general note: The patch-clamp technique gives a direct electrical read-out from membranes.
Series [24] in a line: Protein binding in pooled human plasma at 10 uM incubated for 4 hrs under shaking condition by LC-MS/MS analysis. Type of series: ADME, cell-free. Conditions: read-out: PPB (converted).
Series [25] in a line: Intrinsic clearance in rat liver microsomes at 1 uM in presence of NADPH and measured up to 30 mins by LC-MS/MS analysis. Type of series: ADME, Microsome. The note with it: read-out: CLH.
The nature of series [26]: n-Octanol-PBS buffer partition coefficient, log D of the compound at pH 7.4 after overnight incubation by LC/UV/qTOF analysis. Type of series: physicochemical.

Chain of Voltage-gated inwardly rectifying potassium channel KCNH2 (Q12809 whole entry): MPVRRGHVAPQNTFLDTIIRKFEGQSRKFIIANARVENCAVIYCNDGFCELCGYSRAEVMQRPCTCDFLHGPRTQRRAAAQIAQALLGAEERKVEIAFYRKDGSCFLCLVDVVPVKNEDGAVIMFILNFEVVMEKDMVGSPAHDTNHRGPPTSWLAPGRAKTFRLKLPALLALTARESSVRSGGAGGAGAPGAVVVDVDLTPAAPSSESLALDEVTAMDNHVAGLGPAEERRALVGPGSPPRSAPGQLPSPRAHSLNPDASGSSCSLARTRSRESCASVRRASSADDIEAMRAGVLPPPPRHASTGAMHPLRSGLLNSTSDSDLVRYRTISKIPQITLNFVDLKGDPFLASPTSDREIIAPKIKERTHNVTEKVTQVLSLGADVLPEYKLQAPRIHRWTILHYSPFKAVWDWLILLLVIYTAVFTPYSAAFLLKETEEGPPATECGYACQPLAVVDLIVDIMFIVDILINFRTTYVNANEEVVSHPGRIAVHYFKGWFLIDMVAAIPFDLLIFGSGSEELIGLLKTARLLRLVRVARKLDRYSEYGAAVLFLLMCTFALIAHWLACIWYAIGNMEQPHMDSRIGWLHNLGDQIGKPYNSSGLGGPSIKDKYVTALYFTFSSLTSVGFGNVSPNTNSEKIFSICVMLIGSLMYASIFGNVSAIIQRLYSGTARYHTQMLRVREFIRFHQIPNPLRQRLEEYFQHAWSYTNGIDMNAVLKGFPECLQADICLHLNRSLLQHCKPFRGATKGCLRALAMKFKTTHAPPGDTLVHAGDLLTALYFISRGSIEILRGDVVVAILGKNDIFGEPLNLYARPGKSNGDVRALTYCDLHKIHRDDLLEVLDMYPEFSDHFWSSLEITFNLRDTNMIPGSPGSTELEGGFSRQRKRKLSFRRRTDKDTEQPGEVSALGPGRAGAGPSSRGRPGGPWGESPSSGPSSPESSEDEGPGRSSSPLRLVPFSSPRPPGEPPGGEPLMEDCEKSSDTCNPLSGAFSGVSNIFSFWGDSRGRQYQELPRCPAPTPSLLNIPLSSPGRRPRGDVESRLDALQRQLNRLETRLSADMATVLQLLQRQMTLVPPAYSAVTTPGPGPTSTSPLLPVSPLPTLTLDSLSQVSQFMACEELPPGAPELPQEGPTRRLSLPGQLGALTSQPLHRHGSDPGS

Take `O=C(O)c1cn(C2CC2)c2cc(N3CCNCC3)c(F)cc2c1=O` [CIPROFLOXACIN]: the Tmax at 24 h in the series “in vivo” came out at 15 min. In addition, the Activity in the series on Escherichia coli [1] is reported as 6.4 mg/kg/day. Further, the AUC/dose in [2] turned out to be 0.29 µM·h/mg/kg. In addition, the Cmax/dose in [3] amounted to 0.14 µM/mg/kg. The IC50 in series [4] was 2.71 µM. In [5], the Tmax is 30 min.

On to `Cc1c(N2CC[C@@H]([C@H](C)N)C2)c(F)cc2c(C(=O)O)cc(=O)n(C3CC3)c12`, for which the minimum inhibitory concentration (MIC) against Escherichia coli [6], against Pseudomonas aeruginosa [7], in the series with Klebsiella pneumoniae, with Pseudomonas aeruginosa [9] and with Pseudomonas aeruginosa [10] was above 32 µg/mL each time. In addition, in series [8], the pKa was 2.2.

Regarding `Cc1c(N2CC[C@H](N)C2)c(F)cc2c(CN)cc(=O)n(C3CC3)c12`, the minimum inhibitory concentration (MIC) in the series with Escherichia coli [6] was 2 µg/mL (≈ 6.05 µM); with Escherichia coli [11], 0.5 µg/mL (≈ 1.51 µM); against Pseudomonas aeruginosa [7], 4 µg/mL (≈ 12.1 µM); against Escherichia coli [14], above 32 µg/mL; with Klebsiella pneumoniae, 2 µg/mL (≈ 6.05 µM); with Pseudomonas aeruginosa [9], 2 µg/mL (≈ 6.05 µM). In the series with Pseudomonas aeruginosa [10], this compound gave an MIC of 0.5 µg/mL (≈ 1.51 µM). Further, the Ratio entry in the series with Escherichia coli [12] is on record as “>=32”. The selectivity ratio in series [13] came out at 1.7. Moreover, in the series with NIH3T3, the IC50 was found to be 288 µM.

In the case of `Cc1c(N2CC[C@@H]([C@H](C)N)C2)c(F)cc2cc(C(=O)O)c(=O)n(C3CC3)c12`, the values for the MIC in the series with Escherichia coli [6], against Klebsiella pneumoniae and in the series on Pseudomonas aeruginosa [9] were 4 µg/mL (≈ 10.7 µM), 8 µg/mL (≈ 21.4 µM) and 64 µg/mL (≈ 171 µM), respectively. Further, the IC50 at DNA gyrase came out at 2.91 µM; in series [4] it was 4.8 µM. For the same compound, the Selectivity ratio in series [15] is 8.

For `Cc1c(N2CC3CC3(N)C2)c(F)cc2c(CN)cc(=O)n(C3CC3)c12` (stereo not given), the MIC is 0.25 µg/mL (≈ 0.73 µM) against Escherichia coli [6]; 0.06 µg/mL (≈ 0.175 µM) against Escherichia coli [11]; 4 µg/mL (≈ 11.7 µM) in the series with Pseudomonas aeruginosa [7]; 32 µg/mL (≈ 93.5 µM) against Escherichia coli [14]; 0.5 µg/mL (≈ 1.46 µM) against Klebsiella pneumoniae; 1 µg/mL (≈ 2.92 µM) against Pseudomonas aeruginosa [9]. Further, the lowest concentration to inhibit growth in the series on Pseudomonas aeruginosa [10] (MIC) was 0.5 µg/mL (≈ 1.46 µM). In addition, the IC50 at 110 min in series [16] stood at 316 µM. Moreover, the Ratio in the series with Escherichia coli [12] was determined as 128. Moreover, the Selectivity ratio in series [17] is 4. Besides, the selectivity ratio in series [13] was found to be 104. Also, the IC50 in the series with NIH3T3 amounted to 3.03 µM.

Take `Cc1c(N2CC[C@@H]([C@H](C)N)C2)c(F)cc2c(O)cc(=O)n(C3CC3)c12`: the MIC is above 32 µg/mL against Escherichia coli [6]; 16 µg/mL (≈ 46.3 µM) against Escherichia coli [11]; above 32 µg/mL against Pseudomonas aeruginosa [7]; above 32 µg/mL in the series with Klebsiella pneumoniae; above 32 µg/mL in the series with Pseudomonas aeruginosa [9]; above 32 µg/mL in the series on Pseudomonas aeruginosa [10]. Besides, in series [8], the pKa amounted to 5.7.

Turning to `Cc1c(N2CC[C@@H]([C@H](C)N)C2)c(F)cc2c(CN)cc(=O)n(C3CC3)c12`, the MIC in the series on Escherichia coli [6] was 1 µg/mL (≈ 2.79 µM); in the series with Escherichia coli [11], 0.06 µg/mL (≈ 0.167 µM); against Pseudomonas aeruginosa [7], 2 µg/mL (≈ 5.58 µM); against Escherichia coli [14], above 32 µg/mL; against Klebsiella pneumoniae, 4 µg/mL (≈ 11.2 µM); in the series on Pseudomonas aeruginosa [9] it was 2 µg/mL (≈ 5.58 µM). In the series with Pseudomonas aeruginosa [10], this compound displayed an MIC of 0.5 µg/mL (≈ 1.39 µM). Also, the Ratio result with Escherichia coli [12] is “>=64”. In addition, in [18], the solubility at 24 h was above 555 µg/mL. Also, the microsomal CLint at 1 µM was 14 µL/min/mg in series [19] and below 7.7 µL/min/mg in series [25]. The Selectivity ratio in series [17] was found to be 16. In addition, the values for the fraction unbound at 4 h, 10 µM in series [20], in series [21] and in series [24] were 0.82, 0.44 and 0.83, respectively. Besides, the efflux ratio at 2 h, 10 µM in [22] amounted to 18. This compound displayed an IC50 in series [23] above 300 µM. This compound also had a logD in series [26] of -0.29.

(Values after ChEMBL document CHEMBL4616724, “Topoisomerase Inhibitors Addressing Fluoroquinolone Resistance in Gram-Negative Bacteria” (J Med Chem, 2020).)
